The text below walks through data of ChEMBL document CHEMBL1144587, “Synthesis and antiviral activity of C-fluoro-branched cyclopropyl nucleosides” (Eur J Med Chem, 2007).

What all share (format): functional, organism-based
The test system of one assay is Human betaherpesvirus 5. The assay is described as follows: Antiviral activity against HCMV AD169. The conditions noted are these: Human betaherpesvirus 5, AD169.
Assay [1] has as its system Human immunodeficiency virus 1. The assay is described as follows: Antiviral activity against HIV1 in MT4 cells. Conditions: Human immunodeficiency virus 1, MT4.
Another assay relates to Human alphaherpesvirus 2. The assay is described as follows: Antiviral activity against HSV2 in CCL81 cells. Conditions: Human alphaherpesvirus 2, CCL 81.
A further assay deals with Human alphaherpesvirus 1. The assay is described as follows: Antiviral activity against HSV1 in CCL81 cells. The conditions noted are these: Human alphaherpesvirus 1, CCL 81.

A value given as a limit tells only on which side of the number the result lay.

Regarding `C[C@]1(CO)C[C@]1(F)n1ccc(N)nc1=O` (racemic), the half-maximal effective concentration (EC50) (with Human betaherpesvirus 5; in assay [1]; in the assay on Human alphaherpesvirus 2; in the assay on Human alphaherpesvirus 1) was over 100 µM throughout.
As to `C[C@]1(CO)C[C@@]1(F)n1ccc(=O)[nH]c1=O` (racemic), the EC50 is 43 µM with Human betaherpesvirus 5, over 100 µM in assay [1], over 100 µM in the assay on Human alphaherpesvirus 2 and over 100 µM in the assay on Human alphaherpesvirus 1.
As for `Cc1cn([C@]2(F)C[C@]2(C)CO)c(=O)[nH]c1=O` (racemic), the EC50 in the assay with Human betaherpesvirus 5 was over 100 µM; in assay [1], 35 µM; with Human alphaherpesvirus 2, over 100 µM; in the assay on Human alphaherpesvirus 1, over 100 µM.
`Cc1cn([C@@]2(F)C[C@]2(C)CO)c(=O)[nH]c1=O` (racemic): the EC50 was 51.4 µM in the assay with Human betaherpesvirus 5, 89 µM in assay [1], over 100 µM in the assay on Human alphaherpesvirus 2 and over 100 µM in the assay on Human alphaherpesvirus 1.
As for `C[C@]1(CO)C[C@]1(F)n1cnc2c(N)ncnc21` (racemic), the EC50 was 71 µM in the assay on Human betaherpesvirus 5, over 100 µM in assay [1], over 100 µM with Human alphaherpesvirus 2 and 67 µM in the assay on Human alphaherpesvirus 1.
`C[C@]1(CO)C[C@@]1(F)n1cnc2c(N)ncnc21` (racemic): the 50% effective concentration (EC50) in the assay on Human betaherpesvirus 5 was over 100 µM; in assay [1] it was over 100 µM; in the assay with Human alphaherpesvirus 2 it was over 100 µM; in the assay on Human alphaherpesvirus 1 it was 87 µM.
In the case of `C[C@]1(CO)C[C@@]1(F)n1ccc(N)nc1=O` (racemic), the concentration for a half-maximal effect (EC50) with Human betaherpesvirus 5 is over 100 µM; in assay [1], 65 µM; with Human alphaherpesvirus 2, over 100 µM; in the assay on Human alphaherpesvirus 1, over 100 µM.
As to `C[C@]1(CO)C[C@]1(F)n1ccc(=O)[nH]c1=O` (racemic), the EC50 is 10.6 µM in the assay with Human betaherpesvirus 5, 19.4 µM in assay [1], over 100 µM in the assay on Human alphaherpesvirus 2 and over 100 µM with Human alphaherpesvirus 1.
As to `Nc1nc2c(ncn2COC(CO)CO)c(=O)[nH]1` [GANCICLOVIR], the concentration for a half-maximal effect (EC50) amounted to 1.01 µM with Human betaherpesvirus 5, 1.5 µM with Human alphaherpesvirus 2 and 1.5 µM in the assay with Human alphaherpesvirus 1.
Take `Cc1cn([C@H]2C[C@H](N=[N+]=[N-])[C@@H](CO)O2)c(=O)[nH]c1=O` [ZIDOVUDINE]: a half-maximal response in assay [1] (EC50) required 0.0008 µM.
